From patent publication EP3168210A1, “CRYSTALLINE FORMS OF ENTINOSTAT” (SANDOZ AG, priority 2015, dated 2017)

Tests used:
[1] = Compression study (hydraulic press, polymorphic form after compression); format: physicochemical; settings: about 100 mg powder compressed to 5 tonnes/cm^2, held for 1h; slight crystallinity decrease
Experimental: The compression study was performed using a Specac hydraulic press. A sample powder (approx. 100mg) is loaded into a metal die (ring shaped metal holder). A snugly fitted billet (a cylinder-shaped metal rod) is then placed into the die, on top of the powder sample. The die and billet assembly is then placed into the hydraulic press and compressed to a pressure of 5 tonnes/cm^2 and held under that pressure for 1h. The billet is then removed and the disc extracted from the die.

[2] = Water solubility of crystal forms measured by HPLC; format: physicochemical; settings: 25°C
Experimental: The water solubilities at 25°C of different crystal forms of Entinostat have been measured by HPLC and are set out in the following table: […]

Row | SMILES | polymorphic form after compression [1] | Water solubility [2] [µg/mL]
1 | Nc1ccccc1NC(=O)c1ccc(CNC(=O)OCc2cccnc2)cc1 [Form A, (pyridin-3-yl)methyl 4-(2-aminophenylcarbamoyl)benzylcarbamate] | maintain the same polymorphic form | 48
2 | Nc1ccccc1NC(=O)c1ccc(CNC(=O)OCc2cccnc2)cc1 [Form B, (pyridin-3-yl)methyl 4-(2-aminophenylcarbamoyl)benzylcarbamate] | maintain the same polymorphic form | 28
3 | Nc1ccccc1NC(=O)c1ccc(CNC(=O)OCc2cccnc2)cc1 [Form D, (pyridin-3-yl)methyl 4-(2-aminophenylcarbamoyl)benzylcarbamate] | maintain the same polymorphic form | 130
